pIC50: −log10 of the molar value.
Assays:
Assay type in all cases: cell-based
[1] = molecular target: T1, MRGPRX2 (Homo sapiens, UniProt Q96LB1); assay: MRGPRX2 FLIPR calcium mobilization assay; design: host or cells: CHO-K1; settings: CHO-K1 cells stably expressing human MRGPRX2; Ca2+ release; agonist Cortistatin-14 at EC80
T1 sequence (Q96LB1 1-330): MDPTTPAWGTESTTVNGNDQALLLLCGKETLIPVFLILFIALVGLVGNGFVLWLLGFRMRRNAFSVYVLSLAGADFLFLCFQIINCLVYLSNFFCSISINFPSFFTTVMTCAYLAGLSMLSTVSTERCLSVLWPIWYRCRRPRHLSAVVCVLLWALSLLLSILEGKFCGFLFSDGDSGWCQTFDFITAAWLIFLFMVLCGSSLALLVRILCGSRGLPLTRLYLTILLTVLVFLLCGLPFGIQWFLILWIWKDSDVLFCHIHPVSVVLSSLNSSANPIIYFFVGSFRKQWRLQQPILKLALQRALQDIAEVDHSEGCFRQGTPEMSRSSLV
Method: Example A. MRGPRX2 FLIPR Calcium Mobilization Assay
Chinese hamster ovary (CHO-K1) cells stably expressing human MRGPRX2 were purchased from Genescript (Piscataway, NJ). The cells were maintained in culture medium (Ham's F-12K) containing 10% (v/v) FBS, 200 μg/mL Zeocin, 100 units/mL penicillin G and 100 μg/mL streptomycin (Life Technologies, Carlsbad, CA). For the assay, the cells were harvested and resuspended with culture medium without Zeocin before plating at 8000 cells per well in 20 μL in 384-well black clear bottom cell culture plates (VWR, Radnor, PA). After 24 hour culture at 37° C. and 5% CO2, the cells were loaded with 20 μL/well of calcium dye (FLIPR Calcium 6 Assay Kit, Molecular Devices, San Jose, CA) diluted in loading buffer (1× Hank's Balanced Salt Solution (HBSS), 5 mM probenecid, 20 mM 4-(2-hydroxyethyl)-1-piperazineethanesulfonic acid (HEPES), pH 7.4, VWR, Radnor, PA) followed with 45 min. incubation at 37° C. and 40 min. at r.t. in the dark. Cells were then treated with the addition of 10 uL/well test compounds with a range of increasing concentrations diluted in the assay buffer (1×HBSS, 20 mM HEPES, pH 7.4, VWR, Radnor, PA) with FLIPR Penta (Molecular Devices. San Jose, CA) and incubated for 30 min. at r.t. Ca^2+ release was measured with FLIPR Penta with 10 seconds basal fluorescence measurement, then 12.5 μL of 5× agonist Cortistatin-14 (Tocris, Minneapolis, MN) at final concentration corresponding to the EC80 were added followed with continued fluorescence signal monitoring for an additional 110 seconds. The base line adjusted (median of first 10s base line) max value of the Relative Fluorescence Unit (RFU) was plotted against compound concentrations. Wells with no compound were served as the positive controls, and wells with high concentration of reference antagonist were used as negative controls. IC50 curves were globally fitted with 3- or 4-parameter Hill equation in a Genedata Screener (Genedata Basel, Switzerland).

[2] = molecular target: T1, MRGPRX2; assay: MRGPRX2 β-Arrestin recruitment assay (PathHunter); design: host or cells: CHO-K1 (PathHunter); settings: PathHunter CHO-K1 MRGPRX2 β-Arrestin cell line; agonist Cortistatin 14 0.25 μM
Method in brief: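 CHO-K1 PathHunter cells co-expressing ProLink-tagged MRGPRX2 and enzyme-acceptor-tagged β-arrestin were preincubated with compound 1 h at 37° C., then stimulated with cortistatin-14 (0.25 μM final) for 90 min. Enzyme-complementation luminescence read after 1 h detection; data normalized to DMSO and reference antagonist, IC50 from 3- or 4-parameter Hill fit.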

[3] = molecular target: T1, MRGPRX2; assay: MRGPRX2 IP1 HTRF assay; design: host or cells: CHO-K1; settings: CHO-K1 cells stably expressing human MRGPRX2; IP1 accumulation; agonist Cortistatin 14 1 μM
Method in brief: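 CHO-K1 cells stably expressing human MRGPRX2, preincubated with compound 1 h at 37 °C, then stimulated with 1 μM Cortistatin 14 for 1 h. IP1 measured by HTRF against standard curve, normalized to DMSO and reference antagonist controls; IC50 from 3- or 4-parameter Hill fit.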

Row | SMILES | pIC50 [1] | pIC50 [2] | pIC50 [3]
1 | NS(=O)(=O)N1CC[C@](CNc2cc(C(F)(F)F)nc3cc(C(F)(F)F)nn23)(c2ccccc2)C1 (stereo in doubt) [Example 3, 3-(((2,5-Bis(trifluoromethyl)pyrazolo[1,5-a]pyrimidin-7-yl)amino)methyl)-3-phenylpyrrolidine-1-sulfonamide] | 7.00 to 10.00 | 6.00 to 7.00 | 7.00 to 10.00
2 | NS(=O)(=O)N1CCC(CNc2cc(C(F)(F)F)nc3cc(C(F)(F)F)nn23)(c2ccccc2)CC1 [Example 6, 4-(((2,5-Bis(trifluoromethyl)pyrazolo[1,5-a]pyrimidin-7-yl)amino)methyl)-4-phenylpiperidine-1-sulfonamide] | 7.00 to 10.00 | 7.00 to 10.00 | 7.00 to 10.00
3 | Cc1cc2nc(C(F)(F)F)cc(NCC3(c4ccccc4)CCNCC3)n2n1 [Example 8, 2-Methyl-N-((4-phenylpiperidin-4-yl)methyl)-5-(trifluoromethyl)pyrazolo[1,5-a]pyrimidin-7-amine] | 7.00 to 10.00 | 7.00 to 10.00 | 6.00 to 7.00
4 | CNC(=O)N1CCC(CNc2cccc3nc(C(F)(F)F)cn23)(c2ccccc2)CC1 [Example 21, N-Methyl-4-phenyl-4-(((2-(trifluoromethyl)imidazo[1,2-a]pyridin-5-yl)amino)methyl)piperidine-1-carboxamide] | 7.00 to 10.00 | 7.00 to 10.00 | 7.00 to 10.00
5 | NC(=O)N1CC(CNc2cccc3nc(C(F)(F)F)nn23)(c2ccc(F)cc2)C1 [Example 33, 3-(4-Fluorophenyl)-3-(((2-(trifluoromethyl)-[1,2,4]triazolo[1,5-a]pyridin-5-yl)amino)methyl)azetidine-1-carboxamide] | 7.00 to 10.00 | 7.00 to 10.00 | 7.00 to 10.00
6 | Fc1ccc(C2(CNc3cccc4nc(C(F)(F)F)cn34)CCC2)cc1 [Example 36, N-((1-(4-Fluorophenyl)cyclobutyl)methyl)-2-(trifluoromethyl)imidazo[1,2-a]pyridin-5-amine] | 7.00 to 10.00 | 7.00 to 10.00 | 7.00 to 10.00
7 | FC(F)(F)c1cn2c(NCC3(c4ccncc4)CCC3)cccc2n1 [Example 37, N-((1-(Pyridin-4-yl)cyclobutyl)methyl)-2-(trifluoromethyl)imidazo[1,2-a]pyridin-5-amine] | 7.00 to 10.00 | 7.00 to 10.00 | 7.00 to 10.00
8 | FC(F)(F)c1cn2c(NCC3(c4ccc(Br)cc4)CCC3)cccc2n1 [Example 38, N-((1-(4-Bromophenyl)cyclobutyl)methyl)-2-(trifluoromethyl)imidazo[1,2-a]pyridin-5-amine] | 7.00 to 10.00 |  | 7.00 to 10.00
9 | COc1ccc(C2(CNc3cccc4nc(C(F)(F)F)cn34)CCOCC2)cc1 [Example 39, N-((4-(4-Methoxyphenyl)tetrahydro-2H-pyran-4-yl)methyl)-2-(trifluoromethyl)imidazo[1,2-a]pyridin-5-amine] | 7.00 to 10.00 | 7.00 to 10.00 | 7.00 to 10.00
10 | N#Cc1cnc(N2CC(CNc3cc(C(F)(F)F)nc4cc(C(F)(F)F)nn34)(c3ccc(F)cc3)C2)cn1 [Example 45, 5-(3-(((2,5-Bis(trifluoromethyl)pyrazolo[1,5-a]pyrimidin-7-yl)amino)methyl)-3-(4-fluorophenyl)azetidin-1-yl)pyrazine-2-carbonitrile] | 7.00 to 10.00 | 7.00 to 10.00 | 7.00 to 10.00

Next, values leading:

Row | pIC50 [1] | pIC50 [2] | pIC50 [3] | SMILES
11 | 7.00 to 10.00 | 7.00 to 10.00 | 7.00 to 10.00 | NC(=O)N1CCC(CNc2cc(C(F)(F)F)nc3cc(C(F)(F)F)nn23)(c2ccccc2)C1 (stereo not drawn) [Example 4, 3-(((2,5-Bis(trifluoromethyl)pyrazolo[1,5-a]pyrimidin-7-yl)amino)methyl)-3-phenylpyrrolidine-1-carboxamide]
12 | 7.00 to 10.00 | 7.00 to 10.00 | 7.00 to 10.00 | NS(=O)(=O)N1CC(CNc2cc(C(F)(F)F)nc3cc(C(F)(F)F)nn23)(n2cc(F)cn2)C1 [Example 9, 3-(((2,5-Bis(trifluoromethyl)pyrazolo[1,5-a]pyrimidin-7-yl)amino)methyl)-3-(4-fluoro-1H-pyrazol-1-yl)azetidine-1-sulfonamide]
13 | 7.00 to 10.00 | 7.00 to 10.00 | 7.00 to 10.00 | CNC(=O)N1CCC(CNc2cc(C)nc3nc(C(F)(F)F)nn23)(c2ccccc2)CC1 [Example 18, N-Methyl-4-(((5-methyl-2-(trifluoromethyl)-[1,2,4]triazolo[1,5-a]pyrimidin-7-yl)amino)methyl)-4-phenylpiperidine-1-carboxamide]
14 | 7.00 to 10.00 | 7.00 to 10.00 | 7.00 to 10.00 | CC(=O)N1CCC(CNc2cccc3nc(C(F)(F)F)cn23)(c2ccccc2)CC1 [Example 20, 1-(4-Phenyl-4-(((2-(trifluoromethyl)imidazo[1,2-a]pyridin-5-yl)amino)methyl)piperidin-1-yl)ethan-1-one]
15 | 7.00 to 10.00 | 7.00 to 10.00 | 7.00 to 10.00 | NS(=O)(=O)N1CC(CNc2cc(C(F)(F)F)nc3cc(C(F)(F)F)nn23)(c2ccc(F)cc2)C1 [Example 30, 3-(((2,5-Bis(trifluoromethyl)pyrazolo[1,5-a]pyrimidin-7-yl)amino)methyl)-3-(4-fluorophenyl)azetidine-1-sulfonamide]
16 | 7.00 to 10.00 | 7.00 to 10.00 | 7.00 to 10.00 | NC(=O)N1CC(CNc2cc(C(F)(F)F)nc3cc(C(F)(F)F)nn23)(c2ccc(F)cc2)C1 [Example 31, 3-(((2,5-Bis(trifluoromethyl)pyrazolo[1,5-a]pyrimidin-7-yl)amino)methyl)-3-(4-fluorophenyl)azetidine-1-carboxamide]
17 | 7.00 to 10.00 | 7.00 to 10.00 | 7.00 to 10.00 | NS(=O)(=O)N1CC(CNc2cccc3nc(C(F)(F)F)nn23)(c2ccc(F)cc2)C1 [Example 32, 3-(4-Fluorophenyl)-3-(((2-(trifluoromethyl)-[1,2,4]triazolo[1,5-a]pyridin-5-yl)amino)methyl)azetidine-1-sulfonamide]
18 | 7.00 to 10.00 | 7.00 to 10.00 | 7.00 to 10.00 | CN1CCN(C2CC(CNc3cc(C(F)(F)F)nc4cc(Br)nn34)(c3ccccc3)C2)CC1 (stereo not drawn) [Example 43, 2-Bromo-N-((3-(4-methylpiperazin-1-yl)-1-phenylcyclobutyl)methyl)-5-(trifluoromethyl)pyrazolo[1,5-a]pyrimidin-7-amine]
19 | 7.00 to 10.00 | 7.00 to 10.00 | 7.00 to 10.00 | OCCNC1CC(CNc2cc(C(F)(F)F)nc3cc(Br)nn23)(c2ccccc2)C1 (stereo not drawn) [Example 44, 2-((3-(((2-Bromo-5-(trifluoromethyl)pyrazolo[1,5-a]pyrimidin-7-yl)amino)methyl)-3-phenylcyclobutyl)amino)ethan-1-ol]
20 | 7.00 to 10.00 |  | 6.00 to 7.00 | Cc1cc2nc(C(F)(F)F)cc(NCC3(c4ccccc4)CCOC3)n2n1 (stereo not drawn) [Example 77, 2-Methyl-N-((3-phenyltetrahydrofuran-3-yl)methyl)-5-(trifluoromethyl)pyrazolo[1,5-a]pyrimidin-7-amine]
21 | 6.00 to 7.00 |  | < 6.00 | N#Cc1cc2nc(Cl)cc(NCC3(c4ccccc4)CCNCC3)n2n1 [Example 104, 5-Chloro-7-(((4-phenylpiperidin-4-yl)methyl)amino)pyrazolo[1,5-a]pyrimidine-2-carbonitrile]

From US20250084087A1, “BICYCLIC HETEROCYCLES AS MRGPRX2 ANTAGONISTS” (Incyte Corporation, priority 2023, published 2025)
